Key:
Test in all cases: relative viability vs DMSO control (72 h) (fraction); higher = more viable cells
HS729 = system: HS729
In short: (§1)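 Relative viability was measured with ATPLite and expressed as percent growth, averaged across up to triplicate wells. Sarcoma cell lines had been seeded in 384-well plates to reach 80–90% confluence, dosed after 24 h, and incubated 72 h at 37 °C, 5% CO2. All data were rescaled on a scale where 1 is full and 0 is none.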

SW872 = system: SW872
In short: as §1

A204 = system: A204
In short: as §1

SW684 = system: SW684
In short: as §1

KHOS-NP = system: KHOS-NP
In short: as §1

CNC(=O)c1c(C)oc2cc(Oc3ncnc4cc(OC)c(OC)cc34)ccc12 [Fruquintinib]
relative viability
Conditions | A204 | HS729 | KHOS-NP | SW684 | SW872
0.00017 µM | 1.06 | 1.09 | 1.114 | 1.15 | 1.09
0.00051 µM | 1.09 | 1 | 1.11 | 1.12 | 1.06
0.00152 µM | 1.05 | 0.959 | 1.11 | 1.16 | 1.03
0.00457 µM | 1.05 | 0.961 | 1.09 | 1.18 | 1.04
0.01372 µM | 1.06 | 0.908 | 1.11 | 1.15 | 1.03
0.04115 µM | 0.999 | 0.927 | 1.099 | 1.15 | 0.988
0.1235 µM | 0.967 | 0.896 | 1.08 | 1.1 | 1
0.3704 µM | 0.73 | 0.852 | 1.07 | 1.13 | 0.963
1.111 µM | 0.409 | 0.794 | 1.07 | 1.12 | 0.9736
3.333 µM | 0.32 | 0.717 | 1.03 | 1.09 | 0.893
10 µM | 0.258 | 0.657 | 1.027 | 1.07 | 0.852

COc1cc2ncnc(Nc3ccc(F)c(Cl)c3)c2cc1OCCCN1CCOCC1 [Gefitinib]
relative viability
Conditions | A204 | HS729 | KHOS-NP | SW684 | SW872
0.00017 µM | 1.06 | 0.9733 | 1.09 | 1.09 | 1
0.00051 µM | 1.08 | 0.97 | 1.08 | 1.16 | 1.02
0.00152 µM | 1.09 | 1.03 | 1.08 | 1.09 | 1.05
0.00457 µM | 1.06 | 0.947 | 1.08 | 1.17 | 1.026
0.01372 µM | 1.05 | 1.01 | 1.096 | 1.1 | 1.03
0.04115 µM | 1.1 | 1.03 | 1.07 | 1.15 | 1.02
0.1235 µM | 1.1 | 1 | 1.06 | 1.07 | 1.03
0.3704 µM | 1.03 | 1.01 | 1.06 | 1.16 | 1.04
1.111 µM | 1.04 | 0.958 | 1.08 | 1.1 | 1.01
3.333 µM | 0.876 | 0.853 | 1.08 | 1.15 | 0.868
10 µM | 0.448 | 0.621 | 0.898 | 0.424 | 0.476

CCc1nc(C(N)=O)c(Nc2ccc(N3CCC(N4CCN(C)CC4)CC3)c(OC)c2)nc1NC1CCOCC1 [Gilteritinib]
relative viability
Conditions | A204 | HS729 | KHOS-NP | SW684 | SW872
60 pM | 1.05 | 0.9885 | 1.08 | 1.08 | 1.03
0.00018 µM | 1.01 | 0.928 | 1.12 | 1.13 | 1.01
0.00053 µM | 1.04 | 0.924 | 1.07 | 1.11 | 1.01
0.0016 µM | 1.04 | 0.875 | 1.1 | 1.14 | 1.01
0.0048 µM | 1.02 | 0.828 | 1.061 | 1.15 | 0.98
0.014 µM | 1.02 | 0.797 | 1.06 | 1.13 | 0.949
0.043 µM | 1.03 | 0.74 | 1.03 | 1.09 | 0.905
0.13 µM | 0.943 | 0.63 | 1.02 | 0.889 | 0.787
0.389 µM | 0.742 | 0.47 | 0.959 | 0.633 | 0.493
1.167 µM | 0.502 | 0.357 | 0.83 | 0.506 | 0.341
3.5 µM | 0.385 | 0.322 | 0.695 | 0.491 | 0.305

O=S(=O)(c1cccc2c(O)nccc12)N1CCCNCC1 [Hydroxyfasudil]
relative viability
Conditions | A204 | HS729 | KHOS-NP | SW684 | SW872
0.00017 µM | 1.08 | 1.087 | 1.09 | 1.16 | 1.12
0.00051 µM | 1.1 | 0.998 | 1.09 | 1.21 | 1.11
0.00152 µM | 1.12 | 1.05 | 1.086 | 1.2 | 1.09
0.00457 µM | 1.1 | 1.004 | 1.1 | 1.16 | 1.1
0.01372 µM | 1.11 | 0.967 | 1.09 | 1.16 | 1.07
0.04115 µM | 1.11 | 0.969 | 1.1 | 1.15 | 1.11
0.1235 µM | 1.11 | 0.97 | 1.08 | 1.14 | 1.07
0.3704 µM | 1.06 | 0.962 | 1.07 | 1.15 | 1.07
1.111 µM | 1.04 | 0.95 | 1.07 | 1.12 | 1.08
3.333 µM | 1.05 | 0.887 | 1.049 | 1.06 | 1.03
10 µM | 0.979 | 0.853 | 1.04 | 1.02 | 0.964

C#Cc1cccc(Nc2ncnc3cc4c(cc23)OCCOCCOCCO4)c1 [Icotinib]
relative viability
Conditions | A204 | HS729 | KHOS-NP | SW684 | SW872
0.00017 µM | 1.07 | 1.08 | 1.083 | 1.172 | 1.14
0.00051 µM | 1.08 | 1.091 | 1.09 | 1.18 | 1.14
0.00152 µM | 1.11 | 1.01 | 1.08 | 1.2 | 1.11
0.00457 µM | 1.13 | 1 | 1.09 | 1.19 | 1.108
0.01372 µM | 1.071 | 0.99 | 1.09 | 1.2 | 1.11
0.04115 µM | 1.12 | 0.99 | 1.09 | 1.18 | 1.09
0.1235 µM | 1.09 | 0.97 | 1.08 | 1.18 | 1.08
0.3704 µM | 1.07 | 0.971 | 1.09 | 1.18 | 1.07
1.111 µM | 0.967 | 0.957 | 1.096 | 1.17 | 1.06
3.333 µM | 0.947 | 0.892 | 1.08 | 1.16 | 1.04
10 µM | 0.877 | 0.8227 | 1.07 | 1.13 | 1.03

CCN1CCN(c2ccc(Nc3cc(N(C)C(=O)Nc4c(Cl)c(OC)cc(OC)c4Cl)ncn3)cc2)CC1 [Infigratinib]
relative viability
Conditions | A204 | HS729 | KHOS-NP | SW684 | SW872
85 pM | 1.08 | 1.01 | 1.07 | 1.18 | 1.09
0.000254 µM | 1.08 | 0.934 | 1.12 | 1.19 | 1.097
0.00076 µM | 1.08 | 0.942 | 1.09 | 1.19 | 1.09
0.00229 µM | 1.05 | 0.913 | 1.06 | 1.14 | 1.06
0.00686 µM | 0.964 | 0.866 | 1.08 | 1.18 | 1.03
0.02058 µM | 0.825 | 0.788 | 1.085 | 1.18 | 1.03
0.0617 µM | 0.676 | 0.69 | 1.08 | 1.16 | 1.06
0.1852 µM | 0.569 | 0.635 | 1.05 | 1.17 | 1.04
0.5556 µM | 0.559 | 0.604 | 1.06 | 1.15 | 1.01
1.6667 µM | 0.527 | 0.526 | 1.08 | 1.22 | 0.882
5 µM | 0.408 | 0.525 | 1.08 | 1.14 | 0.839

CS(=O)(=O)CCNCc1ccc(-c2ccc3ncnc(Nc4ccc(OCc5cccc(F)c5)c(Cl)c4)c3c2)o1 [Lapatinib]
relative viability
Conditions | A204 | HS729 | KHOS-NP | SW684 | SW872
0.00017 µM | 1.06 | 0.93 | 1.059 | 1.15 | 1.03
0.00051 µM | 1.07 | 0.935 | 1.055 | 1.13 | 1.03
0.00152 µM | 1.06 | 0.873 | 1.05 | 1.14 | 1.03
0.00457 µM | 1.07 | 0.878 | 1.07 | 1.13 | 1.02
0.01372 µM | 1.06 | 0.939 | 1.055 | 1.13 | 1.01
0.04115 µM | 1.08 | 0.921 | 1.053 | 1.17 | 1.05
0.1235 µM | 1.07 | 0.93 | 1.06 | 1.15 | 1.05
0.3704 µM | 1.09 | 0.887 | 1.1 | 1.14 | 1.05
1.111 µM | 1.05 | 0.879 | 1.07 | 1.19 | 1.04
3.333 µM | 0.701 | 0.794 | 1.02 | 1.15 | 0.895
10 µM | 0.0212 | 0.134 | 0.93 | 0.707 | 0.0477

O=C1CCc2c(Oc3ccc4c(c3)[C@@H]3[C@H](O4)[C@H]3c3nc4cc(C(F)(F)F)ccc4[nH]3)ccnc2N1 [Lifirafenib]
relative viability
Conditions | A204 | HS729 | KHOS-NP | SW684 | SW872
0.00017 µM | 1.1 | 0.947 | 1.07 | 1.17 | 0.974
0.00051 µM | 1.12 | 0.921 | 1.07 | 1.2 | 0.998
0.00152 µM | 1.12 | 0.926 | 1.07 | 1.18 | 1.01
0.00457 µM | 1.104 | 0.937 | 1.07 | 1.16 | 1.03
0.01372 µM | 1.1 | 0.886 | 1.064 | 1.15 | 1.03
0.04115 µM | 1.11 | 0.907 | 1.05 | 1.15 | 0.98
0.1235 µM | 1.1 | 0.871 | 1.06 | 1.154 | 0.941
0.3704 µM | 0.781 | 0.852 | 1.07 | 1.22 | 0.735
1.111 µM | 0.49 | 0.8769 | 0.8425 | 1.32 | 0.644
3.333 µM | 0.38 | 0.851 | 0.433 | 1.3 | 0.644
10 µM | 0.317 | 0.817 | 0.321 | 0.936 | 0.59

CNC(=O)c1cccc2cc(Oc3ccnc4cc(OCC5(N)CC5)c(OC)cc34)ccc12 [Lucitanib]
relative viability
Conditions | A204 | HS729 | KHOS-NP | SW684 | SW872
0.00017 µM | 1.04 | 1.08 | 1.103 | 1.14 | 1.07
0.00051 µM | 1.07 | 1.07 | 1.13 | 1.23 | 1.08
0.00152 µM | 1.04 | 1.07 | 1.12 | 1.26 | 1.056
0.00457 µM | 1.01 | 1.04 | 1.11 | 1.23 | 1.07
0.01372 µM | 0.859 | 1.01 | 1.11 | 1.21 | 1.07
0.04115 µM | 0.584 | 0.983 | 1.11 | 1.21 | 1.059
0.1235 µM | 0.421 | 0.915 | 1.126 | 1.15 | 1.038
0.3704 µM | 0.391 | 0.866 | 1.11 | 1.18 | 1.057
1.111 µM | 0.265 | 0.692 | 1.12 | 1.19 | 1.07
3.333 µM | 0.172 | 0.618 | 1.12 | 1.12 | 1.04
10 µM | 0.153 | 0.568 | 1.13 | 1.11 | 0.961

CCOc1cc2ncc(C#N)c(Nc3ccc(OCc4ccccn4)c(Cl)c3)c2cc1NC(=O)/C=C/CN(C)C [Neratinib]
relative viability
Conditions | A204 | HS729 | KHOS-NP | SW684 | SW872
0.00017 µM | 1.09 | 0.944 | 1.042 | 1.16 | 1.03
0.00051 µM | 1.09 | 0.922 | 1.022 | 1.1 | 1.02
0.00152 µM | 1.08 | 0.955 | 1.022 | 1.11 | 1.03
0.00457 µM | 1.097 | 0.905 | 1.01 | 1.13 | 1.03
0.01372 µM | 1.03 | 0.925 | 1.04 | 1.16 | 1.01
0.04115 µM | 1.06 | 0.861 | 1.01 | 1.116 | 0.97
0.1235 µM | 1.01 | 0.771 | 1.05 | 1.06 | 0.932
0.3704 µM | 0.665 | 0.672 | 1.02 | 0.848 | 0.76
1.111 µM | 0.395 | 0.639 | 0.73 | 0.826 | 0.609
3.333 µM | 0.338 | 0.645 | 0.484 | 0.792 | 0.492
10 µM | -0.00133 | 0.00633 | 0.486 | -0.0161 | -0.00553

Reference: the supplement of paper PMC10883282
